Measurements as given in patent US12097262B2, “mTORC1 inhibitors” (THE REGENTS OF THE UNIVERSITY OF CALIFORNIA, priority 2014, dated 2024).

What was measured:
[1] = tested on: mTORC1 and mTORC2 signaling (pS6, p4E-BP1, pAkt S473); experiment: Time-course effects on mTORC1 and mTORC2 signaling in SNU-449; type: cell-based, human; settings: 0.33-24 h
Description: Cellular Signaling Effects of Class mTOR Inhibitors. Cells were seeded in 60 mm cell culture dishes and incubated 1-2 days until 70-90% confluency. Cells were treated with compound solution in DMSO (1000×) and incubated at 37° C. in a 5% CO2 humidified incubator for a given length of time. Whole cell lysates were prepared using RIPA buffer (R^3792) (TEKnova, Hollister, CA USA) with a phosphatase inhibitor cocktail tablet PhosStop and a protease inhibitor cocktail tablet cOmplete Mini (Roche Diagnostics GmbH, Mannheim, Germany). Cell lysates (based on a certain amount of protein determined by Pierce BCA Protein Assay Kit (PI-23225) (Thermo Fisher Scientific Inc., Waltham, MA USA)) were electrophoresed using a Criterion Tris-HCl gel 4-20% (Bio-Rad Laboratories, Hercules, CA USA) and transferred to a nitrocellulose membrane (162-0115) (Bio-Rad Laboratories, Hercules, CA USA). After incubation for more than 1 h with a blocking buffer at room temperature, membranes were labeled with primary antibodies by overnight incubation at 4° C., followed by 1 hour incubation with horseradish peroxidase-conjugated (HRP-conjugated) secondary antibodies at room temperature. The following antibodies were used for immunoblot: phospho-Akt (S473) (#9271), phospho-Akt (T308) (#2965), total-Akt (#9272), phospho-S6 (Ser240/Ser244) (#2215L), S6 ribosomal protein (#2217), phospho-4E-BP1 (T37/T46) (#2855), total 4E-BP1 (#9644) (Cell Signaling Technology, Inc., Danvers, MA USA), FKBP12 (sc-28814) mouse β-actin (sc-8432) (Santa Cruz Biotechnology, Inc., Dallas, Texas USA), anti-rabbit IgG conjugated with horseradish peroxidase (HRP) (#7074), and anti-mouse IgG conjugated with HRP (#7076) (Cell Signaling Technology, Inc., Danvers, MA USA). Nitrocellulose membranes were exposed with SuperSignal® West Pico Chemiluminescent Substrate or Femto Maximum Sensitivity Substrate (Thermo Fisher Scientific Inc., Waltham, MA USA) and signals were recorded on a CL-Xposure film (Thermo Fisher Scientific Inc., Waltham, MA USA).

HCT-15 = experiment: Cell viability assay (CellTiter-Glo), HCT-15; type: cell-based, human; settings: Homo sapiens; for EC50: 72 h after compound treatment
Description: (§1) The cells were grown in appropriate medium (vender recommended) supplemented with 10% heat-inactivated fetal bovine serum (FBS), in tissue culture dishes placed in a humidified incubator maintained at 37° C. in an atmosphere of 5% CO2 and 95% air.
(§2) Cell viability assay. Cells were seeded in a 96-multiwell plate at 3000-4000 cells per well in medium containing FBS and cells were incubated at 37° C. overnight. After 18-20 h, compounds in 10×DMSO solution (n=3) were added to the cells and were incubated for additional 3 days in a humidified incubator in an atmosphere of 5% CO2 and 95% air. After treatment of Cell Titer-Glo® luminescent cell viability assay reagent (Promega Corporation, Madison, WI USA), the luminescence value was recorded using SpectraMax M5 Multi-Mode Microplate Readers (Molecular Devices, LLC, Sunnyvale, CA USA). Concentration response curves were generated on GraphPad Prism (GraphPad Software, La Jolla, CA USA) by calculating the decrease in luminescence values in compound-treated samples relative to the DMSO controls.
(§3) Anti-proliferative effects of compounds were evaluated in human colorectal cancer HCT-15 cells (mutation: KRAS, PIK3CA), human hepatocellular carcinoma SNU-449 (mutation: TP53, CDKN2A), SNU-398 (mutation: CTNNB 1), SNU-182 (mutation: TP53) and renal adenocarcinoma 786-O (mutation: VHL, PTEN, TP53, CDKN2A) in 72 h after compound treatment.

MCF-7 cells = experiment: Cell proliferation assay (CellTiter-Glo, 72 h), MCF-7 cells; type: cell-based; settings: 72 hours (FIG. 14B)
Description: FIGS. 14A-14B. FIG. 14A: 786-O cells were treated for 72 hours with the indicated drugs before cell viability was measured. […] FIG. 14B: MCF-7 cells were treated for 72 hours with the indicated drugs before cell viability was measured.
Cell proliferation assays. Cells grown in 96-well plates were treated with inhibitor in triplicate or vehicle (0.1% DMSO). After 72 h, cell viability was assessed with the […]-GLO® Luminescent Cell Viability Assay (Promega). Cell proliferation curves were generated using Prism.

[2] = tested on: mTORC1 and mTORC2 downstream signaling (pS6, p4E-BP1, pAkt S473); experiment: Downstream signaling of mTOR by immunoblotting, dose dependence, HCT-15 and SNU-449 cells; type: cell-based, human; settings: immunoblot at 3 h after compound treatment
Description: Downstream signaling of mTOR was tested using an immunoblotting method at 3 h after compound treatment.

mTORC1 and mTORC2 = experiment: Western blot analysis of mTORC1/mTORC2 inhibition in MCF-7 cells; type: cell-based; settings: 4 hours, western blot (FIG. 13A)
Description: FIGS. 13A-13B. FIG. 13A: MCF-7 cells were treated for 4 hours with E1035 and M1071 before harvesting. FIG. 13B: SNU-449 cells were treated with 3 hours with E1010 before harvesting. Cells were lysed and blotted for the indicated proteins. M1071 has the narrowest concentration range between mTORC1 and mTORC2 inhibition. The concentration range between mTORC1 and mTORC2 inhibition widens for E1035.
Cell Culture and Western Blot Analysis. Cells were grown in 6-well plates and treated with inhibitor at the indicated concentrations or with vehicle (0.1% DMSO). Treated cells were lysed, and lysates were resolved by SDS-PAGE, transferred to nitrocellulose and blotted. All antibodies were purchased from Cell Signaling Technology.

[3] = tested on: TORC1 and TORC2 outputs (p4E-BP1, pS6); experiment: Drug washout experiment in SNU-449 cells; type: cell-based, human; settings: 30 nM for 3 h, then washout
Description: Cellular Signaling Effects of Class mTOR Inhibitors. Cells were seeded in 60 mm cell culture dishes and incubated 1-2 days until 70-90% confluency. Cells were treated with compound solution in DMSO (1000×) and incubated at 37° C. in a 5% CO2 humidified incubator for a given length of time. […] After incubation for more than 1 h with a blocking buffer at room temperature, membranes were labeled with primary antibodies by overnight incubation at 4° C., followed by 1 hour incubation with horseradish peroxidase-conjugated (HRP-conjugated) secondary antibodies at room temperature. […] Nitrocellulose membranes were exposed with SuperSignal® West Pico Chemiluminescent Substrate or Femto Maximum Sensitivity Substrate (Thermo Fisher Scientific Inc., Waltham, MA USA) and signals were recorded on a CL-Xposure film (Thermo Fisher Scientific Inc., Waltham, MA USA).
Drug Washout Experiment. SNU-449 cells were treated with 30 nM of compounds for 3 h. The medium was aspirated out and cells were washed with fresh 10% FBS in RPMI1640 medium. Then, cells were incubated with fresh 10% FBS in RPMI1640 medium at 37° C. for described time period.

[4] = Effect on blood glucose level in mice; settings: mice (n=3), intraperitoneal, 1, 3 mg/kg
Description: Effect on blood glucose level. […] Blood glucose levels (mg/dL) were monitored.

[5] = tested on: phospho-4E-BP1, pS6, phospho-S473 of Akt in 786-O xenograft tumor; experiment: Pharmacodynamic study in human renal cancer 786-O xenograft tumor in mice; type: in vivo
Description: Pharmacodynamic studies of M1071 in human renal cancer 786-O xenograft tumor in mice. […] Tumor samples were collected at 3 h after drug administration. For the MWF group, M-1071 was administered once daily every other day. At 4 h after the last administration, tumor samples were collected. After the freezing tumor samples, they were homogenized and treated with RIPA buffer containing phosphatase inhibitor and protease inhibitor. The following western blotting analysis were conducted in a similar way to abovementioned method.

SNU-398 = experiment: Cell viability assay (CellTiter-Glo), SNU-398; type: cell-based, human; settings: Homo sapiens; for EC50: 72 h after compound treatment
Description: as §1, §2, §3

SNU-449 = experiment: Cell viability assay (CellTiter-Glo), SNU-449; settings: Homo sapiens; for EC50: SNU-449, 72 h, read-out: EC50 (nM) SNU-449
Description: as §1, §2, §3

SNU-182 = experiment: Cell viability assay (CellTiter-Glo), SNU-182; type: cell-based, human; settings: Homo sapiens; for EC50: 72 h after compound treatment
Description: as §1, §2, §3

786-O = experiment: Cell viability assay (CellTiter-Glo), 786-O; type: cell-based, human; settings: Homo sapiens; for EC50: 786-0, 72 h after compound treatment
Description: as §1, §2, §3

[6] = clinical trials; cited from earlier work

For `CO[C@H]1C[C@@H]2CC[C@@H](C)[C@@](O)(O2)C(=O)C(=O)N2CCCC[C@H]2C(=O)O[C@H]([C@H](C)C[C@@H]2CC[C@@H](OCCOCc3cn(CCOCCOCCOCCOCCOCCOCCOCCOCCC(=O)NCCCCn4nc(-c5ccc6oc(N)nc6c5)c5c(N)ncnc54)nn3)[C@H](OC)C2)CC(=O)[C@H](C)/C=C(\C)[C@@H](O)[C@@H](OC)C(=O)[C@H](C)C[C@H](C)/C=C/C=C/C=C/1C` [Compound M-1071, 40-O-(2-((1-(32-(4-amino-3-(2-aminobenzo[d]oxazol-5-yl)-1H-pyrazolo[3,4-d]pyrimidin-1-yl)-27-oxo-3,6,9,12,15,18,21,24-octaoxa-28-azadotriacontyl)-1H-1,2,3-triazol-4-yl)methoxy)ethyl)-rapamycin], the “p4E-BP1 inhibition, time course” value [1] was “continuous complete inhibition of TORC1 outputs within 3-24 h”, the “phosphorylation of Akt S473, time course” value [1] was “transient feedback activation on Akt S473 at 1 and 3 h, and then a slight inhibition was observed at 24 h” and the EC50 (HCT-15) was less than 10 nM. For the same compound, the inhibition at 10 µM (HCT-15; read-out: % inhibition at 10 μM HCT-15, 10 μM) was 50 to 100%, the “effects on cell proliferation” value (MCF-7 cells) was “potent effects on cell proliferation” and the “mTORC1/2 downstream inhibition (pS6, p4E-BP1 and pAkt S473)” value [2] was “stronger inhibition of mTORC1 signaling (pS6 and p4E-BP1) compared to mTORC2 downstream Akt S473 phosphorylation”. The p4E-BP1 inhibition [2] was “complete p4E-BP1 inhibition at drug concentrations in which pAkt S473 is not inhibited”, the “concentration range between mTORC1 and mTORC2 inhibition” value (mTORC1 and mTORC2) was “narrowest” and the mTORC2 inhibition (mTORC1 and mTORC2) was “also inhibits mTORC2”. For the same compound, the “sustained inhibitory effect on p4E-BP1 after washout” value [3] was “at least 2 h”, the “sustained inhibitory effect on pS6 after washout” value [3] was “at least 4 h” and the blood glucose level [4] was “no increase in blood glucose levels”. For the same compound, the “inhibition of pS6 and p4EBP-1 in tumor” value ([5]; 5 mg/kg) was “complete inhibition”, the “inhibition of phospho-S473 of Akt in tumor” value ([5]; highest dosing of 5 mg/kg) was “slight” and the “Phosphorylation of S6 in tumor” value ([5]; intraperitoneal) was “inhibited”. For the same compound, the “inhibition against phospho-4E-BP1 in tumor” value ([5]; intraperitoneal, tumor collected 3 h after administration) was “dose dependent inhibition”, the EC50 (SNU-398) was less than 10 nM and the inhibition at 10 µM (SNU-398; read-out: % inhibition at 10 μM SNU-398, 10 μM) was 50 to 100%. For the same compound, the EC50 (SNU-449) was less than 10 nM, the inhibition at 10 µM (SNU-449; SNU-449, read-out: % inhibition at 10 μM SNU-449) was 25 to 50% and the EC50 (SNU-182) was less than 10 nM. It also gave an inhibition at 10 µM (SNU-182; read-out: % inhibition at 10 μM SNU-182, 10 μM) of 25 to 50%, an EC50 (786-O) of less than 10 nM and an inhibition at 10 µM (786-O; 786-0, read-out: % inhibition at 10 μM 786-O, 10 μM) of 25 to 50%.

With `CC(C)n1nc(-c2ccc3oc(N)nc3c2)c2c(N)ncnc21` [MLN0128, reference compound] the “p4E-BP1 inhibition, time course” value [1] was “completely inhibited p4E-BP1 in early onset (0.33-1 h) and then partial phosphorylation of 4E-BP1 was observed after 3 h to 24 h”, the “phosphorylation of Akt S473, time course” value [1] was “blocked phosphorylation of pAkt S473 continuously during 0.33-24 h” and the EC50 (HCT-15) was 50 to 100 nM. For the same compound, the dose limiting toxicity [6] was “Grade ≥3 hyperglycemia”, the “mTORC1/2 downstream inhibition (pS6, p4E-BP1 and pAkt S473)” value [2] was “pan-mTORC1/2 downstream inhibition” and the “time until inhibitory effects disappeared after washout” value [3] was no more than 1 h. The EC50 (SNU-398) was 10 to 50 nM, the EC50 (SNU-449) was 10 to 50 nM and the EC50 (SNU-182) was 50 to 100 nM. For the same compound, the EC50 (786-O) was 50 to 100 nM.
